# Assays:
# [1] = system: Acinetobacter; assay: Compound was evaluated for inhibitory activity against AC12 Acinetobacter; type: functional
# [2] = system: Citrobacter; assay: Compound was evaluated for inhibitory activity against CF17 Citrobacter; type: functional
# [3] = system: Enterobacter cloacae; assay: Compound was evaluated for inhibitory activity against 265a Enterobacter cloacae beta-lactamase; type: functional
# [4] = system: Enterobacter cloacae; assay: Compound was evaluated for inhibitory activity against EB5 Enterobacter cloacae; type: functional
# [5] = system: Escherichia coli; assay: Compound was evaluated for inhibitory activity against EC14 Escherichia coli sensitive; type: functional
# [6] = system: Escherichia coli; assay: Compound was evaluated for inhibitory activity against TEM Escherichia coli beta-lactamase; type: functional
# [7] = system: Klebsiella aerogenes; assay: Compound was evaluated for inhibitory activity against EB17 Enterobacter aerogenes; type: functional
# [8] = system: Enterococcus faecalis; assay: Compound was evaluated for inhibitory activity against 2041 Enterococcus faecalis Gp.D streptococcus penicillin susceptible; type: functional
# [9] = system: Klebsiella aerogenes; assay: Compound was evaluated for inhibitory activity against C32 Enterobacter aerogenes; type: functional
# [10] = system: Haemophilus influenzae; assay: Compound was evaluated for inhibitory activity against 76 Haemophilus influenzae beta-lactamase; type: functional
# [11] = system: Haemophilus influenzae; assay: Compound was evaluated for inhibitory activity against C.L Haemophilus influenzae ampicillin sensitive; type: functional
# [12] = system: Klebsiella pneumoniae; assay: Compound was evaluated for inhibitory activity against KAE Klebsiella pneumoniae; type: functional
# [13] = system: Klebsiella pneumoniae; assay: Compound was evaluated for inhibitory activity against X26 Klebsiella pneumoniae; type: functional
# [14] = system: Morganella morganii; assay: Compound was evaluated for inhibitory activity against PR15 Morganella morganii; type: functional
# [15] = system: Providencia rettgeri; assay: Compound was evaluated for inhibitory activity against C24 Providencia rettgeri; type: functional
# [16] = system: Providencia stuartii; assay: Compound was evaluated for inhibitory activity against PR33 Providencia stuartii; type: functional
# [17] = system: Salmonella; assay: Compound was evaluated for inhibitory activity against X514 Salmonella; type: functional
# [18] = system: Serratia; assay: Compound was evaluated for inhibitory activity against SE3 Serratia; type: functional
# [19] = system: Serratia; assay: Compound was evaluated for inhibitory activity against X99 Serratia; type: functional
# [20] = system: Streptococcus pyogenes; assay: Compound was evaluated for inhibitory activity against C203 Streptococcus pyogenes Gp.A; type: functional
# [21] = system: Staphylococcus aureus; assay: Compound was evaluated for inhibitory activity against S13E Staphylococcus aureus methicillin resistant penicillin resistant macrolide sensitive (PBP2a producer); type: functional
# [22] = system: Staphylococcus aureus; assay: Compound was evaluated for inhibitory activity against X1.1 Staphylococcus aureus penicillin sensitive; type: functional
# [23] = system: Staphylococcus aureus; assay: Compound was evaluated for inhibitory activity against X400S Staphylococcus aureus methicillin resistant and macrolide resistant; type: functional
# [24] = system: Streptococcus pneumoniae; assay: Compound was evaluated for inhibitory activity against Park S Streptococcus pneumoniae; type: functional
# [25] = system: Streptococcus pyogenes; assay: Compound was evaluated for inhibitory activity against C203 Streptococcus pyogenes Gp.A; No growth; type: functional, organism-based
# [26] = system: Enterococcus faecalis; assay: Compound was evaluated penicillin susceptible; type: functional
SMILES,MIC [1] [µM],MIC [2] [µM],MIC [3] [µM],MIC [4] [µM],MIC [5] [µM],MIC [6] [µM],MIC [7] [µM],MIC [9] [µM],MIC [10] [µM],MIC [11] [µM],MIC [12] [µM],MIC [13] [µM],MIC [14] [µM],MIC [15] [µM],MIC [16] [µM],MIC [17] [µM],MIC [18] [µM],MIC [19] [µM],MIC [21] [µM],MIC [22] [µM],also measured
N[C@@H](C(=O)N[C@@H]1C(=O)N2C(C(=O)O)=C(C(F)(F)F)CC[C@H]12)c1ccccc1,32,4,8,4,0.5,1,2,4,1,1,4,0.25,32,8,4,0.25,16,8,8,0.5,MIC [8]: 16 µM; MIC [20]: 0.03 µM; MIC [23]: 32 µM; MIC [24]: 0.25 µM
N[C@@H](C(=O)N[C@@H]1C(=O)N2C(C(=O)O)=C(C(F)(F)F)CC[C@H]12)c1cccc(C(F)(F)F)c1,32,128,128,4,8,16,128,128,1,1,64,1,32,64,32,32,128,128,16,2,MIC [8]: 16 µM; MIC [25]: No growth; MIC [23]: 16 µM; MIC [24]: 0.13 µM
N[C@@H](C(=O)N[C@@H]1C(=O)N2C(C(=O)O)=C(C(F)(F)F)CC[C@H]12)c1ccc(O)cc1,16,4,1,1,0.25,0.5,0.5,0.25,0.5,0.5,1,0.06,16,4,1,0.06,16,2,32,0.5,MIC [26]: 32 µM; MIC [20]: 0.06 µM; MIC [23]: 64 µM; MIC [24]: 0.25 µM
N[C@@H](C(=O)N[C@@H]1C(=O)N2C(C(=O)O)=C(C(F)(F)F)CC[C@H]12)c1ccc(Cl)c(Cl)c1,128,128,128,128,32,16,128,128,2,2,64,1,32,64,32,32,128,128,8,0.5,MIC [8]: 16 µM; MIC [20]: 0.02 µM; MIC [23]: 64 µM; MIC [24]: 0.13 µM
N[C@@H](C(=O)N[C@@H]1C(=O)N2C(C(=O)O)=C(C(F)(F)F)CC[C@H]12)c1cccc(Br)c1,16,32,64,64,4,4,32,16,1,0.5,16,0.25,16,16,16,4,128,128,8,1,MIC [8]: 8 µM; MIC [20]: 0.13 µM; MIC [23]: 16 µM; MIC [24]: 0.13 µM

# — ChEMBL document CHEMBL1130994, “3-trifluoromethylcarbacephems: synthesis of broad spectrum antibacterial compounds” (1998)
